Data published in patent US11207331B2, “Agents, compositions and methods for enhancing neurological function” (University of Southern California, priority 2007, dated 2021).
“Also recorded” adds a separate entry of the source.

Tested on: mouse dentate gyrus subgranular zone (SGZ)
Test: Unbiased stereology of BrdU-positive cells in dentate gyrus subgranular zone
Format: in vivo
Conditions: for cell proliferation (normal BrdU+ cells) / pyknotic BrdU+ cell count after THP treatment: 24 hr; for pyknotic BrdU+ cell count after THP treatment: 6-months, 10 mg/kg s.c.
Description: Mice of each genotype and age received a subcutaneous (s.c.) injection of THP at a concentration of 10 mg/kg body weight (BW), an optimal dose of THP-[…] based on our previous studies. One hour after THP injection, mice were intraperitoneally (i.p.) injected with 100 mg/kg BW bromodeoxyuridine (BrdU). Two experimental paradigms were used: 1) THP treatment for behavior and cell survival assessment, in which animals received a single shot of THP/vehicle, followed by a 7-day neurogenesis and migration phase, followed by a 5-day trace-conditioning test followed 9 days later by a 1-day memory test, and scarified 21 days after a single THP injection at which time FACS analysis of BrdU positive cells was performed to assess cell survival; 2).
Acute THP treatment for cell proliferation assessment, in which animals received a single injection of THP/vehicle and were sacrificed 24 hr later followed by quantitative unbiased stereology of BrdU positive cells.
Mice were sacrificed 24 h after THP administration for cell proliferation assessment or at the end of memory test for cell survival assessment. On the day of sacrifice mice were deeply anesthetized with a combination of ketamine (100 mg/kg) and xylazine (10 mg/kg), and perfused with PBS. Brains were dissected into two hemispheres, and one hemisphere was fixed immediately in cold 4% paraformaldehyde and was used for either stereological analysis (cell proliferation) or FACS analysis (cell survival).
The fixed hemispheres from cell proliferation assessment experiment were sectioned into a series of 40 μm coronal sections and every sixth section in the series was processed for BrdU histolabeling by NeuroScience Associates (Knoxville, Tenn.). Prior to labeling, all slides were coded and the codes were not broken until analyses were completed. The number of BrdU labeled cells was determined by unbiased stereology (optical dissector). Systematic samplings of unbiased counting frames of 50 μm on a side with a 200 μm matrix spacing were produced using a semiautomatic stereology system (Zeiss Axiovert 200M fluorescent microscope as part of the 3iMarianas digital microscopy and a 60×SPlan apochromat oil objective (1.4 numerical aperture). Positive cells that intersected the uppermost focal (exclusion) plane and those that intersected the exclusion boundaries of the unbiased sampling frame were excluded from analysis. Cells that met analysis criteria through a 20 μm axial distance were counted according to the optical dissector principle. The granule cell layer reference volume was determined by summing the traced SGZ, granule cell areas for each section multiplied by the distance between sections sampled. The mean granule cell number per dissector volume was multiplied by the reference volume to estimate the total granule cell number. The stereologically determined number of BrdU-positive cells was related to the granule cell layer sectional volume and multiplied by the reference volume to estimate the total number of BrdU-positive cells.
Total BrdU labeled cells were quantified for 3, 6, 9, and 12 months non-Tg and 3×TgAD male mice. The serial brain sections were collected to analyze the effects of THP on BrdU incorporation by unbiased stereological analysis. Data are represented as mean±SEM (n≥4 in each group). […] PCNA, an S-phase cell cycle marker, was increased in THP compared to vehicle control in 3×TgAD mice in three month (FIG. 12B) and six month (FIG. 12C) mice as shown by immunoblot.
To decipher the THP effect in neurogenesis, cell proliferation assessment experiments were conducted. Following animal sacrifice and brain section staining, unbiased stereology was conducted in both non-Tg and 3×TgAD mice at three different ages.

CC(=O)[C@H]1CC[C@H]2[C@@H]3CC[C@H]4C[C@H](O)CC[C@]4(C)[C@H]3CC[C@]12C [THP, 3α-hydroxy-5α-pregnan-20-one]
increase in BrdU incorporation vs vehicle control group (3×TgAD mice, 3 months, 10 mg/kg BW s.c., 24 hours): 55+18%
cell proliferation (normal BrdU+ cells) (3×TgAD mice, 6, 9, 12 months): no significant effect in cell proliferation
pyknotic BrdU+ cell count after THP treatment (3×TgAD mice): 48.0±48.00
neurogenic deficit of 3×TgAD mice vs non-Tg (total BrdU cells) (3×TgAD mice, one s.c. dose, 24 hours): restored proliferation to that of normal nontransgenic mice; also recorded: reversed the neurogenic deficit of the 3×TgAD mouse SGZ and restored normal levels of neurogenesis
pyknotic cell population, vehicle vs THP (non-Tg and 3×TgAD mice, 9- and 12-months): no difference
cell proliferation (normal BrdU+ cells) (non-Tg mice, 6, 9, 12 months): no effect on cell proliferation
pyknotic BrdU+ cell count after THP treatment (non-Tg mice): 576.0±185.49
